Assay results reported in article PMC9401038 (Angewandte Chemie (International Ed. in English), 2022).
Values joined by “and” are separate entries in the source; they are usually repeats but may differ in a detail not shown here. Equal entries are not always repeated.

Assays:
[1] = system: zebrafish larvae cardiac rhythm; assay: Cardiac frequency monitoring in zebrafish larvae under dark/380 nm/550 nm; type: in vivo; settings: 10 μM, 7 dpf larvae, dark and both illumination conditions equivalent
[2] = Photostationary state quantification by 1H‐NMR; type: physicochemical; settings: 12 °C, 100 μM in D2O
[3] = target: β1‐AR (Homo sapiens, UniProt P08588); assay: β1‐AR functional cAMP assay; type: cell-based
[4] = target: β2‐AR (Homo sapiens, UniProt P07550); assay: β2‐AR inhibition of cimaterol-stimulated cAMP in HEK293 H188 M1 cells; settings: in the dark and upon illumination at 380 nm, cimaterol 3 nM
[5] = UV/Vis photochemical characterization; type: physicochemical
[6] = 50 μM in Epac buffer+0.5 % DMSO, 25–28 °C

β1‐AR, sequence (P08588 whole entry): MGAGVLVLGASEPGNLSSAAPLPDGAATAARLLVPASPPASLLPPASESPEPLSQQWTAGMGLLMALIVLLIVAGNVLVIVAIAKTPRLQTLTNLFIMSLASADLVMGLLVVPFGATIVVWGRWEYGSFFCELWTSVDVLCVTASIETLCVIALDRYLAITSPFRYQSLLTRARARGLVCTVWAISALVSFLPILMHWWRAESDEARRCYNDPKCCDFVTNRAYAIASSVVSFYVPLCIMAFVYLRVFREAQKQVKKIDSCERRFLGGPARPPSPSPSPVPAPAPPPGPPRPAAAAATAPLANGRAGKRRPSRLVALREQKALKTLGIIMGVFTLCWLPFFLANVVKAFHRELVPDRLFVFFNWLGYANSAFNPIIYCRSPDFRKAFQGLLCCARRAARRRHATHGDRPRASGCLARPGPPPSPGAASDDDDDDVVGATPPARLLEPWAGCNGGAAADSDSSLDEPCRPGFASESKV
β2‐AR, sequence (P07550 whole entry): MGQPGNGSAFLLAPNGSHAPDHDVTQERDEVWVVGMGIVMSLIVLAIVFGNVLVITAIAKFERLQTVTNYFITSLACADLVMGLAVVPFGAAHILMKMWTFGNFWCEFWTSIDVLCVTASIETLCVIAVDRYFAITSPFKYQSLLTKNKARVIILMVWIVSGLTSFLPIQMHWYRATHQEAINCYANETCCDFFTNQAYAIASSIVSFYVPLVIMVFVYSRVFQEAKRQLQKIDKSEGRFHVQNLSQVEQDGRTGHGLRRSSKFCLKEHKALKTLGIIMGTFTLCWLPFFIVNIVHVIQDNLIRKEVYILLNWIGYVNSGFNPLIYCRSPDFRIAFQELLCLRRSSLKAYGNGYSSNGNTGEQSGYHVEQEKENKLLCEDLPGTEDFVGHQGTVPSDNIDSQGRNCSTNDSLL

Question: Which cardiac rhythm [1] does the source give for `COc1ccccc1OCCNCC(O)COc1cccc2[nH]c3ccccc3c12` (stereo not drawn) [Carvedilol, carvedilol] here?
Answer: The cardiac rhythm was “significant reduction in the cardiac rhythm”.

Question: For `CC(C)NC[C@H](O)COc1ccc(/N=N/c2ccccc2)cc1` [pAzo‐1], which PSS365 ([2]; after 365 nm illumination) is on record?
Answer: Its PSS365 is 95 %cis.

Question: What about the PSS530 ([2]; after 525 nm illumination) of the same compound?
Answer: The PSS530 was 76.3 % trans and 76 % trans.

Question: What about the EC50 ([3]; EC50 DARK, dark (trans isomer)) of the same compound?
Answer: Its EC50 is 0.0151 µM.

Question: What about the EC50 ([3]; EC50 LIGHT, constant violet light 380 nm (cis isomer)) of the same compound?
Answer: The EC50 was 0.331 µM.

Question: And the “β1/β2 ratio DARK” value ([3]; dark, ratio of 1 implies no selectivity towards β1‐AR)?
Answer: The value was 161.8.

Question: What about the “functional profile towards β1‐AR” value ([3]; two β1‐AR expression levels) of the same compound?
Answer: The value was “low efficacy partial agonists”.

Question: And the “β1/β2 ratio LIGHT” value ([3]; violet light 380 nm, ratio of 1 implies no selectivity)?
Answer: The value was 8.6.

Question: What about the “PPS (Photoinduced Potency Shift)” value ([3]; β1‐AR, relation between EC50 in light and dark) of the same compound?
Answer: Its value is 20.08.

Question: What about the “IC50 values against β2‐AR” value [4] of the same compound?
Answer: Its value is “within the μM range”.

Question: What about the τ cis→trans [5] of the same compound?
Answer: Its τ cis→trans is 57.6 s⁻¹.

Question: What about the “λ n‐π* (cis)” value [5, 6] of the same compound?
Answer: The value was 430 nm.

Question: And the “λ π‐π* (trans)” value [5, 6]?
Answer: The value was 346 nm.

Question: What about the “t 1/2 (thermal relaxation of cis isomer)” value ([5]; 50 μM in Epac buffer+0.5 % DMSO, 28 °C, after 3 min 365 nm) of the same compound?
Answer: The value was 67.6 h.

Question: What about the τ trans→cis ([5]; 365 nm, CoolLED 5 % intensity (0.1 mW mm^−2), 50 μM in Epac buffer+0.5 % DMSO) of the same compound?
Answer: The τ trans→cis was 4.4 s⁻¹.
